Columns and labels:
[1] = test system: pigweed; assay: Test B pre/postemergence pigweed; format: in vivo, Amaranthus retroflexus
Summary of the method: (§1)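 Herbicidal effect was estimated by eye on a ten-point control scale after plants spent twelve to sixteen days in a greenhouse following soil or foliar treatment. Foliar sprays targeted plants at one to four leaves; all doses were formulated in a non-phytotoxic solvent with surfactant.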

[2] = test system: soybean; assay: Test B pre/postemergence soybean; format: in vivo, Glycine max
Summary of the method: as §1

[3] = test system: velvetleaf; assay: Test B pre/postemergence velvetleaf; format: in vivo, Abutilon theophrasti
Summary of the method: as §1

[4] = test system: corn; assay: Test B pre/postemergence corn; format: in vivo, Zea mays
Summary of the method: as §1

[5] = test system: crabgrass; assay: Test B pre/postemergence crabgrass; format: in vivo, Digitaria sanguinalis
Summary of the method: as §1

[6] = test system: sugar beet; assay: Test B pre/postemergence sugar beet; format: in vivo, Beta vulgaris
Summary of the method: as §1

[7] = test system: morningglory; assay: Test B pre/postemergence morningglory; format: in vivo, Ipomoea hederacea
Summary of the method: as §1

[8] = test system: surinam grass; assay: Test B pre/postemergence surinam grass; format: in vivo, Brachiaria decumbens
Summary of the method: as §1

[9] = test system: bedstraw; assay: Test B pre/postemergence bedstraw; format: in vivo, Galium aparine
Summary of the method: as §1

[10] = test system: duck salad; assay: Test B flood test duck salad; format: in vivo, Heteranthera limosa
Summary of the method: (§2)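 Read-out is a visual response score from 0 (no effect) to 10 (complete control), assigned by comparison with untreated controls. Treatment was applied at the 2-leaf stage, and plants stayed in the greenhouse for twelve to sixteen days before scoring.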

[11] = test system: rape; assay: Test B pre/postemergence rape; format: in vivo, Brassica napus
Summary of the method: as §1

[12] = test system: rice; assay: Test B flood test rice; format: in vivo, Oryza sativa
Summary of the method: as §2

[13] = test system: wild oat; assay: Test B pre/postemergence wild oat; format: in vivo, Avena fatua
Summary of the method: as §1

[14] = test system: cocklebur; assay: Test B pre/postemergence cocklebur; format: in vivo, Xanthium strumarium
Summary of the method: as §1

[15] = test system: smallflower flatsedge; assay: Test B flood test smallflower flatsedge; format: in vivo, Cyperus difformis
Summary of the method: as §2

[16] = test system: bamyardgrass; assay: Test B flood test barnyardgrass; format: in vivo, Echinochloa crus-galli
Summary of the method: as §2

[17] = Postemergence, Rate 125 g/ha, scale of 0 to 10 where 0 is no effect and 10 is complete control
[18] = Preemergence, Rate 62 g/ha, scale of 0 to 10 where 0 is no effect and 10 is complete control
[19] = Preemergence, Rate 125 g/ha, 0 is no effect, 10 is complete control
[20] = Preemergence, Rate 250 g/ha, scale 0 to 10, 0 is no effect, 10 is complete control
[21] = Preemergence, Rate 500 g/ha, scale 0 to 10 (0 no effect, 10 complete control)
[22] = Rate 62 g/ha, Postemergence, scale of 0 to 10 where 0 is no effect and 10 is complete control
[23] = Rate 250 g/ha, Postemergence, scale 0 to 10, 0 is no effect, 10 is complete control
[24] = Rate 500 g/ha, Postemergence, scale 0 to 10
[25] = Rate 62 g/ha, headed Pre-emergence (flood test species), scale 0 to 10 (0 no effect, 10 complete control)
[26] = Rate 125 g/ha, Pre-emergence, flood test species, scale 0 to 10 where 0 is no effect and 10 is complete control
[27] = Rate 250 g/ha, Pre-emergence, flood-test species, scale 0 to 10, 0 is no effect, 10 is complete control
[28] = Rate 500 g/ha, headed Pre-emergence (flood test species), scale 0 to 10 (0 no effect, 10 complete control)

Compound: CC(C)N(Cc1ccccc1)C(=O)n1oc(=O)n(C(C)C)c1=O [Compound 165]
- Redroot pigweed plant response rating [1, 17]: 2
- Redroot pigweed plant response rating [1, 18]: 0
- Redroot pigweed plant response rating (0 to 10 scale) [1, 19]: 0
- Redroot pigweed plant response rating [1, 20]: 0
- Redroot pigweed plant response rating [1, 21]: 1
- Redroot pigweed plant response rating [1, 22]: 0
- Plant response rating, Redroot pigweed [1, 23]: 4
- Redroot pigweed plant response rating [1, 24]: 4
- Soybean plant response rating [2, 17]: 4
- Soybean plant response rating [2, 18]: 0
- Soybean plant response rating (0 to 10 scale) [2, 19]: 0
- Soybean plant response rating [2, 20]: 0
- Soybean plant response rating [2, 21]: 0
- Soybean plant response rating [2, 22]: 2
- Plant response rating, Soybean [2, 23]: 6
- Soybean plant response rating [2, 24]: 6
- Velvetleaf plant response rating [3, 18]: 0
- Velvetleaf plant response rating (0 to 10 scale) [3, 19]: 1
- Velvetleaf plant response rating [3, 20]: 4
- Velvetleaf plant response rating [3, 21]: 4
- Plant response rating, Velvetleaf [3, 23]: 1
- Velvetleaf plant response rating [3, 24]: 1
- Corn plant response rating [4, 17]: 0
- Corn plant response rating [4, 18]: 0
- Corn plant response rating (0 to 10 scale) [4, 19]: 0
- Corn plant response rating [4, 20]: 0
- Corn plant response rating [4, 21]: 0
- Corn plant response rating [4, 22]: 0
- Plant response rating, Corn [4, 23]: 3
- Corn plant response rating [4, 24]: 3
- Crabgrass plant response rating [5, 17]: 4
- Crabgrass plant response rating [5, 18]: 4
- Crabgrass plant response rating (0 to 10 scale) [5, 19]: 7
- Crabgrass plant response rating [5, 20]: 8
- Crabgrass plant response rating [5, 21]: 8
- Crabgrass plant response rating [5, 22]: 2
- Plant response rating, Crabgrass [5, 23]: 9
- Crabgrass plant response rating [5, 24]: 9
- Sugarbeets plant response rating [6, 17]: 0
- Sugarbeets plant response rating [6, 18]: 0
- Sugarbeets plant response rating (0 to 10 scale) [6, 19]: 4
- Sugarbeets plant response rating [6, 20]: 4
- Sugarbeets plant response rating [6, 21]: 4
- Sugarbeets plant response rating [6, 22]: 0
- Plant response rating, Sugarbeets [6, 23]: 3
- Sugarbeets plant response rating [6, 24]: 6
- Morningglory plant response rating [7, 17]: 3
- Morningglory plant response rating [7, 18]: 0
- Morningglory plant response rating (0 to 10 scale) [7, 19]: 0
- Morningglory plant response rating [7, 20]: 0
- Morningglory plant response rating [7, 21]: 3
- Morningglory plant response rating [7, 22]: 3
- Plant response rating, Morningglory [7, 23]: 3
- Morningglory plant response rating [7, 24]: 4
- B. signalgrass plant response rating [8, 17]: 1
- B. signalgrass plant response rating [8, 18]: 0
- B. signalgrass plant response rating (0 to 10 scale) [8, 19]: 4
- B. signalgrass plant response rating [8, 20]: 6
- B. signalgrass plant response rating [8, 21]: 6
- B. signalgrass plant response rating [8, 22]: 0
- Plant response rating, B. signalgrass [8, 23]: 5
- B. signalgrass plant response rating ([8]; Rate 500 g/ha, Postemergence, scale 0 to 10, 0 no effect, 10 complete control): 8
- Bedstraw plant response rating [9, 17]: 0
- Bedstraw plant response rating [9, 18]: 0
- Bedstraw plant response rating (0 to 10 scale) [9, 19]: 1
- Bedstraw plant response rating [9, 20]: 3
- Bedstraw plant response rating [9, 21]: 4
- Bedstraw plant response rating [9, 22]: 0
- Plant response rating, Bedstraw [9, 23]: 4
- Bedstraw plant response rating [9, 24]: 8
- Ducksalad plant response rating [10, 25]: 0
- Ducksalad plant response rating [10, 26]: 0
- Ducksalad plant response rating [10, 27]: 0
- Plant response rating, Ducksalad [10, 28]: 0
- Rape plant response rating [11, 17]: 0
- Rape plant response rating [11, 18]: 0
- Rape plant response rating (0 to 10 scale) [11, 19]: 0
- Rape plant response rating [11, 20]: 4
- Rape plant response rating [11, 21]: 10
- Rape plant response rating [11, 22]: 0
- Plant response rating, Rape [11, 23]: 0
- Rape plant response rating [11, 24]: 2
- Rice plant response rating [12, 25]: 0
- Rice plant response rating [12, 26]: 0
- Rice plant response rating [12, 27]: 0
- Plant response rating, Rice [12, 28]: 0
- Wild oats plant response rating [13, 18]: 4
- Wild oats plant response rating (0 to 10 scale) [13, 19]: 4
- Wild oats plant response rating [13, 20]: 4
- Wild oats plant response rating [13, 21]: 6
- Plant response rating, Wild oats [13, 23]: 3
- Wild oats plant response rating [13, 24]: 3
- Cocklebur plant response rating [14, 17]: 0
- Cocklebur plant response rating [14, 18]: 0
- Cocklebur plant response rating (0 to 10 scale) [14, 19]: 0
- Cocklebur plant response rating [14, 20]: 0
- Cocklebur plant response rating [14, 21]: 0
- Cocklebur plant response rating [14, 22]: 0
- Plant response rating, Cocklebur [14, 23]: 0
- Cocklebur plant response rating [14, 24]: 0
- S. Flatsedge plant response rating [15, 25]: 0
- S. Flatsedge plant response rating [15, 26]: 0
- S. Flatsedge plant response rating [15, 27]: 0
- S. Flatsedge plant response rating ([15]; Rate 500 g/ha, Pre-emergence, flood test species, scale 0 to 10 (0 no effect, 10 complete control)): 0
- Barnyardgrass plant response rating [16, 25]: 0
- Barnyardgrass plant response rating [16, 26]: 0
- Barnyardgrass plant response rating [16, 27]: 0
- Plant response rating, Barnyardgrass [16, 28]: 1

Reference: patent US6737383B1, “Herbicidal oxadiazolidines” (priority 1999, dated 2004)
